Measurements taken from patent publication US20050203191A1, “1-Aminocyclohexane derivatives for the treatment of agitation and other behavioral disorders, especially those associated with alzheimer's disease” (priority 2004, published 2005).

Test system: patients with mild to moderate dementia of the Alzheimer's type
Experiment: MD-10: randomized, double-blind, placebo-controlled evaluation of memantine
Type: in vivo, human
Conditions: MD-10, week 24, ITT LOCF
Description: MD-10: MD-10 was a randomized, double-blind, placebo-controlled evaluation of the safety and efficacy of memantine in patients with mild to moderate dementia of the Alzheimer's type. The primary endpoints for MD-10 were ADAS-cog and CIBIC-plus. Other endpoints for MD-10 included ADCS-ADL, NPI, and RUD (Resource Utilization in Dementia).
The five memantine trials were evaluated using an analysis of patient for a population having an NPI agitation subscale score of >4 ([…]) and for a population having an NPI score of <4 ([…]). For each NPI population, changes in SIB, ADAS-cog and/or ADL were calculated using the least square (LS) mean difference for memantine and placebo-treated patients. Similarly, for each NPI population, the raw mean difference between memantine and placebo was calculated for the CIBIC-plus results.
For primary efficacy measurements the comparison between memantine and placebo was performed using two-way analysis of covariance (ANCOVA) with treatment group and center as the two factors, and the baseline scores as covariate. Both the LOCF imputation approach and the OC approach are performed at the end of the trials.
For secondary efficacy measurements, the comparison between memantine and placebo was performed using two-way analysis of covariance (ANCOVA) with treatment group and center as the two main effects, and the baseline scores as covariate. Descriptive statistics were calculated by Visit. Again, all analyses were performed using both the LOCF imputation approach and the OC approach.
Results of ANCOVA were summarized using least square (LS) means for each treatment group with corresponding standard error (SE), the between-treatment (2-24 week) difference in the least square means with corresponding 95% confidence interval, and the between-treatment p-value corresponds to the SAS Type III sum of squares.
In data Tables 5-19, the Overall Memantine versus Placebo columns of studies MD-01, MD-02, MD-10 and MD-12 used an ANCOVA model with baseline total score as covariate, treatment and study center as factors for SIB, ADL or ADAS-cog; CMH test controlling for study center for CIBIC-Plus. For MZ-9605, results are based on arithmetic means and the Wilcoxon-Mann-Whitney test. The Agitation score columns/NPI/antipsychotics columns, except CIBIS-Plus, calculated the p-values and LS mean differences within the subgroups from an ANCOVA model with baseline total score as covariate, subgroup (yes/no), treatment, and treatment by subgroup interactions as factors. For CIBIS-Plus, the p-values and raw mean differences within a subgroup were calculated using the CMH test controlling for study center.
Patients in the same five trials described above were stratified into two sub-groups in a second analysis, those with an NPI total score in the top quartile (≧75%), or those more severely impaired at baseline, and those with an NPI total score <75%, or less severe impairment at baseline. Similar to as in Example 1, results were evaluated using the change in SIB (cognitive endpoint), and change in ADCS-ADL (functional endpoint), using the LS mean. The change in the CIBIC-plus (global endpoint) was assessed using the raw mean.
A sub-population of patients from the five trials, MD-01, MD-02, MD-10, MD-12, and MZ-9605, were concurrently taking antipsychotics.

[1] = NPI total score ≧=75% (top quartile)
[2] = antipsychotics usage “YES” (N = n)
[3] = antipsychotics usage “YES” (N = y)
[4] = baseline NPI agitation score <4
[5] = baseline NPI agitation score ≧=4

For `CC12CC3CC(C)(C1)CC(N)(C3)C2` [memantine, 1-amino-3,5-dimethyl adamantane], the “ADAS-cog (change) LS Mean Diff., MEM v. PLA” value (NPI total score <75%) was −1.59, the “ADAS-cog (change) mean” value (NPI total score <75%) was −0.08 and the “ADCS-ADL (change) LS Mean Diff., MEM v. PLA” value (NPI total score <75%) was 0.11. The “ADCS-ADL (change) mean” value (NPI total score <75%) was −2.67, the “CIBIC-PLUS Raw Mean Diff., MEM v. PLA” value (NPI total score <75%) was −0.32 and the CIBIC-PLUS mean (NPI total score <75%) was 4.16. The “ADAS-cog (change) LS Mean Diff., MEM v. PLA” value [1] was −2.53, the “ADAS-cog (change) mean” value [1] was −1.18 and the “ADCS-ADL (change) LS Mean Diff., MEM v. PLA” value [1] was 0.70. For the same molecule, the “ADCS-ADL (change) mean” value [1] was −5.04, the “CIBIC-PLUS Raw Mean Diff., MEM v. PLA” value [1] was −0.3 and the CIBIC-PLUS mean [1] was 4.33. The “ADAS-COG (change) LS Mean Diff., MEM v. PLA (second parameter of Table 19)” value [2] was 0.31, the “ADAS-COG (change) mean (second parameter of Table 19)” value [2] was −2.69 and the “ADAS-cog (change) LS Mean Diff., MEM v. PLA” value [2] was −1.93. For the same molecule, the “ADAS-cog (change) mean” value [2] was −0.54, the “CIBIC-PLUS Raw Mean Diff., MEM v. PLA” value [2] was −0.29 and the CIBIC-PLUS mean [2] was 4.18. For the same molecule, the “ADAS-COG (change) LS Mean Diff., MEM v. PLA (second parameter of Table 19)” value [3] was −0.017, the “ADAS-COG (change) mean (second parameter of Table 19)” value [3] was −7.95 and the “ADAS-cog (change) LS Mean Diff., MEM v. PLA” value [3] was −0.74. The “ADAS-cog (change) mean” value [3] was 1.42, the “CIBIC-PLUS Raw Mean Diff., MEM v. PLA” value [3] was −0.51 and the CIBIC-PLUS mean [3] was 4.40. For the same molecule, the “ADAS-cog (change) LS Mean Diff., MEM v. PLA” value [4] was −1.87, the “ADAS-cog (change) mean” value [4] was −0.49 and the “ADCS-ADL (change) LS Mean Diff., MEM v. PLA” value [4] was 0.65. The “ADCS-ADL (change) mean” value [4] was −3, the “CIBIC-PLUS Raw Mean Diff., MEM v. PLA” value [4] was −0.36 and the CIBIC-PLUS mean [4] was 4.18. For the same molecule, the “ADAS-cog (change) LS Mean Diff., MEM v. PLA” value [5] was −1.39, the “ADAS-cog (change) mean” value [5] was 0.86 and the “ADCS-ADL (change) LS Mean Diff., MEM v. PLA” value [5] was −2.66. The “ADCS-ADL (change) mean” value [5] was −5.05, the “CIBIC-PLUS Raw Mean Diff., MEM v. PLA” value [5] was “no difference” and the CIBIC-PLUS mean [5] was 4.36. The “CIBIC-PLUS Raw Mean Diff., MEM v. PLA” value (baseline NPI agitation score ≧=4, listed as MEM) was 0.0, the “ADAS-cog (change) LS Mean Diff., MEM v. PLA” value (overall) was −1.90 and the “ADAS-cog (change) LS mean” value (overall) was −0.80. The “ADCS-ADL (change) LS Mean Diff., MEM v. PLA” value (overall) was 0.10, the “ADCS-ADL (change) LS mean” value (overall) was −2.90 and the “CIBIC-PLUS LS mean” value (overall) was 4.20. The “CIBIC-PLUS Raw Mean Diff., MEM v. PLA” value (overall) was −0.30.
